As a reminder, the EC50 is the concentration at which the effect is half-maximal. Low values mean an effect from little substance, high ones a need for much substance.

The assay addresses T1, TGF-beta receptor type-1 [4-503,T204D] (Homo sapiens, UniProt P36897, T204D).
T1 construct: 4-503
Description: Enzyme Assay and Luciferase Reporter Assay. The following applies: pH 7.5; 30 °C. (In general: Reporter assays use an easily measured gene product as a stand-in for the process of interest.)
In turn, `CN1CCN(CCCOc2ccc3c(-c4c(-c5ccccn5)nn5c4CCC5)ccnc3c2)CC1` [7-[3-(4-methylpiperazin-1-yl)propoxy]-4-[2-(pyridin-2-yl)-4H,5H,6H-pyrrolo[1,2-a]pyrazol-3-yl]quinoline] displayed an EC50 of 44 nM.

In turn, `COC(=O)c1ccc2nccc(-c3c(-c4cccc(C)n4)nn4c3CCC4)c2c1` [methyl 4-[2-(6-methylpyridin-2-yl)-4H,5H,6H-pyrrolo[1,2-a]pyrazol-3-yl]quinoline-6-carboxylate] gave a concentration for a half-maximal effect (EC50) of 403 nM.

For the compound `Cc1cccc(-c2nn3c(c2-c2ccnc4c(F)cccc24)CCC3)n1` [8-fluoro-4-[2-(6-methylpyridin-2-yl)-4H,5H,6H-pyrrolo[1,2-a]pyrazol-3-yl]quinoline], the midpoint of the response, the EC50, lay at 951 nM.

On to `CN1CCN(C(=O)COc2ccc3c(-c4c(-c5ccccn5)nn5c4CCC5)ccnc3c2)CC1` [1-(4-methylpiperazin-1-yl)-2-({4-[2-(pyridin-2-yl)-4H,5H,6H-pyrrolo[1,2-a]pyrazol-3-yl]quinolin-7-yl}oxy)ethan-1-one], for which the midpoint of the response, the EC50, lay at 260 nM.

Compound `c1ccc(-c2nn3c(c2-c2cc(N4CCCC4)nc4ccccc24)CCC3)nc1` [4-[2-(pyridin-2-yl)-4H,5H,6H-pyrrolo[1,2-a]pyrazol-3-yl]-2-(pyrrolidin-1-yl)quinoline] had an EC50 of more than 20000 nM.

With `CCN(C)CCOc1ccc2c(-c3c(-c4ccccn4)nn4c3CCC4)ccnc2c1` [ethyl(methyl)[2-({4-[2-(pyridin-2-yl)-4H,5H,6H-pyrrolo[1,2-a]pyrazol-3-yl]quinolin-7-yl}oxy)ethyl]amine], the EC50 stood at 61 nM.

As for `ClCCOc1ccc2c(-c3c(-c4ccccn4)nn4c3CCC4)ccnc2c1` [7-(2-chloroethoxy)-4-[2-(pyridin-2-yl)-4H,5H,6H-pyrrolo[1,2-a]pyrazol-3-yl]quinoline], it took 66 nM to reach a half-maximal effect (EC50).

Compound `CN1CCN(CCOc2ccc3c(-c4c(-c5ccccn5)nn5c4CCC5)ccnc3c2)CC1` [7-[2-(4-methylpiperazin-1-yl)ethoxy]-4-[2-(pyridin-2-yl)-4H,5H,6H-pyrrolo[1,2-a]pyrazol-3-yl]quinoline] returned a concentration giving a half-maximal response (EC50) of 38 nM.

`Cc1cccc(-c2nn3c(c2-c2ccnc4ccc(Br)cc24)CCC3)n1` [6-bromo-4-[2-(6-methylpyridin-2-yl)-4H,5H,6H-pyrrolo[1,2-a]pyrazol-3-yl]quinoline] displayed a half-maximal effective concentration (EC50) of 55 nM.

As for `Oc1ccc2c(-c3c(-c4ccccn4)nn4c3CCC4)ccnc2c1` [4-[2-(pyridin-2-yl)-4H,5H,6H-pyrrolo[1,2-a]pyrazol-3-yl]quinolin-7-ol], the EC50 came to 200 nM.

`c1ccc(-c2nn3c(c2-c2ccnc4cc(OCC5CCCO5)ccc24)CCC3)nc1` (stereo not given) [7-(oxolan-2-ylmethoxy)-4-[2-(pyridin-2-yl)-4H,5H,6H-pyrrolo[1,2-a]pyrazol-3-yl]quinoline]: the concentration for a half-maximal effect (EC50) came to 80 nM.

`CN(C)CCCCCOc1ccc2c(-c3c(-c4ccccn4)nn4c3CCC4)ccnc2c1` [dimethyl[5-({4-[2-(pyridin-2-yl)-4H,5H,6H-pyrrolo[1,2-a]pyrazol-3-yl]quinolin-7-yl}oxy)pentyl]amine] returned a concentration for a half-maximal effect (EC50) of 24 nM.

On to `CCSc1cc(-c2c(-c3ccccn3)nn3c2CCC3)c2ccccc2n1` [2-(ethylsulfanyl)-4-[2-(pyridin-2-yl)-4H,5H,6H-pyrrolo[1,2-a]pyrazol-3-yl]quinoline], for which the EC50 is more than 20000 nM.

In the case of `COc1cc(OC)c2nccc(-c3c(-c4cccc(C)n4)nn4c3CCC4)c2c1` [6,8-dimethoxy-4-[2-(6-methylpyridin-2-yl)-4H,5H,6H-pyrrolo[1,2-a]pyrazol-3-yl]quinoline], the concentration for a half-maximal effect (EC50) worked out at 7200 nM.

In turn, `Cc1cccc(-c2nn3c(c2-c2ccnc4ccc(OC(F)(F)F)cc24)CCC3)n1` [4-[2-(6-methylpyridin-2-yl)-4H,5H,6H-pyrrolo[1,2-a]pyrazol-3-yl]-6-(trifluoromethoxy)quinoline] gave an EC50 of 201 nM.

In turn, `O=C(O)c1ccc(Oc2ccc3c(-c4c(-c5ccccn5)nn5c4CCC5)ccnc3c2)cc1` [4-({4-[2-(pyridin-2-yl)-4H,5H,6H-pyrrolo[1,2-a]pyrazol-3-yl]quinolin-7-yl}oxy)benzoic acid] had an EC50 of more than 20000 nM.

For `Clc1cc(-c2c(-c3ccccn3)nn3c2CCC3)c2ccccc2n1` [2-chloro-4-[2-(pyridin-2-yl)-4H,5H,6H-pyrrolo[1,2-a]pyrazol-3-yl]quinoline], the EC50 was more than 20000 nM.

`Cc1cccc(-c2nn3c(c2-c2ccnc4ccc(C(=O)NCCN(C)C)cc24)CCC3)n1` [N-[2-(dimethylamino)ethyl]-4-[2-(6-methylpyridin-2-yl)-4H,5H,6H-pyrrolo[1,2-a]pyrazol-3-yl]quinoline-6-carboxamide]: the concentration giving a half-maximal response (EC50) was 468 nM.

`CN1CCCC1CCCOc1ccc2c(-c3c(-c4ccccn4)nn4c3CCC4)ccnc2c1` (stereo not given) [7-[3-(1-methylpyrrolidin-2-yl)propoxy]-4-[2-(pyridin-2-yl)-4H,5H,6H-pyrrolo[1,2-a]pyrazol-3-yl]quinoline] showed a concentration giving a half-maximal response (EC50) of 17 nM.

For `CN(C)C(=O)c1ccc(Oc2ccc3c(-c4c(-c5ccccn5)nn5c4CCC5)ccnc3c2)cc1` [N,N-dimethyl-4-({4-[2-(pyridin-2-yl)-4H,5H,6H-pyrrolo[1,2-a]pyrazol-3-yl]quinolin-7-yl}oxy)benzamide], a half-maximal response (EC50) required 15000 nM.
